System: α‐Syn
Experiment: atomic force microscopy of α-Syn fibrils
Assay type: biochemical, human
Settings: 20 μM α-Syn, dried on mica, 20 mM sodium acetate, pH 5.0, room temperature
Experimental: To verify inhibition of α‐Syn fibril formation upon addition of LL‐III, atomic force microscopy (AFM) experiments were carried out. To this end, a 20 μM solution of α‐Syn in the absence and in the presence of LL‐III was dried on a mica surface and AFM pictures were recorded. Under such conditions, liquid droplets could not be detected. In the absence of LL‐III, short fibril‐like structures were observed (Figure S3).
The lyophilized powders of the labeled and unlabeled LL-III peptide were purchased from GenScript, Germany.
The sequence of the LL-III peptide is NH2-VNWKKIL GKIIKVVK -CONH2. In th e labeled peptide, the fluorophore 6-carboxyfluorescein (FAM) was covalently attached to the N-terminus of the peptide. […]
The expression and purification of α-synuclein (α-Syn) was carried out as described before.[1,2] […] A single colony was picked and inoculated into 100 m l LB medium containing 150 μg/m l ampicillin and grown at 37°C with shaking at 250 rpm until the absorbance at 600 nm reached 0.8. […]
Phase-contrast light and fluorescence microscopy
The light and fluorescence microscopy experiments were performed using an Eclipse TE2000- U (Nikon Inc.) op-tical microscope with a Nikon Plan Fluor 20x objective (NA 0.45 WD 7.4) coupled to an TIS DMK 23UX249 camera. […] Fluorescence microscopy experiments were performed using 6-carboxyfluorescein- l abel ed LL- III (FAM-LL-III) exciting at 488 nm. […]

## NH2-VNWKKIL GKIIKVVK -CONH2 [LL‐III]
200 μM LL-III
  fibrils by AFM: some fibrils of smaller size were still visible after drying
500 μM LL-III
  fibrils by AFM: fibrillar structures could no longer be detected
